The source of these data is US5739278A, “Compositions for protein tyrosine phosphatases” (University of Washington, priority 1995, dated 1998).

What all share (assay): Phosphatase assay with ENDY(P)INASL as substrate
What all share (format): biochemical

Experiment [1] has as its target T1, CD45 (Homo sapiens, UniProt P08575).
T1 construct: CD45 were purified from placenta and spleen, respectively; from tissue; host or cells: spleen
T1 sequence (P08575 26-1306): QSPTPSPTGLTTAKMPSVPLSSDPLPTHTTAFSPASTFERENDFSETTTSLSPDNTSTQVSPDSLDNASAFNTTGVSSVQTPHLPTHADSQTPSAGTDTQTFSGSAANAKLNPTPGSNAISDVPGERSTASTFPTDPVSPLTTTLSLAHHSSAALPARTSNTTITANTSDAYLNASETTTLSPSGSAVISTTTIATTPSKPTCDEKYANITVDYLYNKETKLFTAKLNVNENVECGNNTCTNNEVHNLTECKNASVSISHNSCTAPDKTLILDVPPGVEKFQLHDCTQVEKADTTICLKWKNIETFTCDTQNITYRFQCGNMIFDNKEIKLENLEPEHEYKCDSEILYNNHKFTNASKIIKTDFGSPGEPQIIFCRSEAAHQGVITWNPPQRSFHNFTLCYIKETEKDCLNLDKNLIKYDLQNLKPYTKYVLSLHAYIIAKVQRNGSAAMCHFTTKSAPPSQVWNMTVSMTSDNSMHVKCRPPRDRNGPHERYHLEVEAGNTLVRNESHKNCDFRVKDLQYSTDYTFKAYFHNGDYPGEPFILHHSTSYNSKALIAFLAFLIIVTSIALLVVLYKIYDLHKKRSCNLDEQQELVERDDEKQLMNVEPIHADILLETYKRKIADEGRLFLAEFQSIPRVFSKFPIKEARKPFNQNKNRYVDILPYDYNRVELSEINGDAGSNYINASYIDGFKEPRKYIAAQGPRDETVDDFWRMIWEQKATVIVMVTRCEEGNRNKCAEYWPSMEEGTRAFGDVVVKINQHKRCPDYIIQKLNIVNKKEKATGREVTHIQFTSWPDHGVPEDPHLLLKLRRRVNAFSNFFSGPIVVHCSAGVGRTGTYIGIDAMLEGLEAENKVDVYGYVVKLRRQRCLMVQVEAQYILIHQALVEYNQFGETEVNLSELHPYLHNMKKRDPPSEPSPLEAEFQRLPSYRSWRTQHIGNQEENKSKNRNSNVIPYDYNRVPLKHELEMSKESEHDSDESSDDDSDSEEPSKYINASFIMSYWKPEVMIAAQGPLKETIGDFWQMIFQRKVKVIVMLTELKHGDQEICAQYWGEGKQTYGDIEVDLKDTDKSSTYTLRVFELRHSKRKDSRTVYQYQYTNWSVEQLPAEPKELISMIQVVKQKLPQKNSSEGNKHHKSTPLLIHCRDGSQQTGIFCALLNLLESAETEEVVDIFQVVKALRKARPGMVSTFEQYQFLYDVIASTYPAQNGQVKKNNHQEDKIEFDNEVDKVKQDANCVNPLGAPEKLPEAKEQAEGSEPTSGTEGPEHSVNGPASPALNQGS
Particulars: 10 min, read-out: Phosphatase activity in percent of the value obtained in the absence of effectors. As to the method: (§1) The tyrosine phosphatases TC.PTP, TCΔC11.PTP, and RPTPα were purified from infected Sf9 cells as described recently (Zander et al., Biochemistry 30: 6964-6970, 1991; Daum et al., J. Biol. Chem. 266: 12211-12215, 1991). The 37 kDa form of PTP1B and CD45 were purified from placenta and spleen, respectively (according to Tonks et al., J. Biol. Chem. 263: 6722-6730, 1988; Tonks et al., Biochemistry 27: 8695-8701, 1988).
(§2) Phosphatase assays with ENDY(P)INASL were performed in buffer M6. Aliquots of 30 μl or 60 μl containing the phosphopeptide, the phosphatase (-beads) and effectors were incubated for 10 minutes at 30° C. The reaction was stopped by adding 200 μl of a suspension of 10% activated, acid-washed Norit A charcoal (v/v) in 0.9N HCl, 0.1M pyrophosphate and 2 mM NaH2 PO4 (according to Streuli et al., Proc. Natl. Acad. Sci. USA 86: 8698-8702, 1989). The mixture was cleared by 10-minute centrifugation and the radioactivity of 150 μl of the supernate was determined. Assays with MBP and RCML were performed as described in Tonks et al., J. Biol. Chem. 263: 6722-6730, 1988. Protein concentration was determined with BSA as standard (Bradford, Anal. Biochem. 72: 248-254, 1976).

Experiment [2] concerns the target T2, PTP1B (Homo sapiens, UniProt P18031).
T2 construct: The 37 kDa form of PTP1B; from tissue; host or cells: placenta
T2 sequence (P18031 1-321 limits assumed): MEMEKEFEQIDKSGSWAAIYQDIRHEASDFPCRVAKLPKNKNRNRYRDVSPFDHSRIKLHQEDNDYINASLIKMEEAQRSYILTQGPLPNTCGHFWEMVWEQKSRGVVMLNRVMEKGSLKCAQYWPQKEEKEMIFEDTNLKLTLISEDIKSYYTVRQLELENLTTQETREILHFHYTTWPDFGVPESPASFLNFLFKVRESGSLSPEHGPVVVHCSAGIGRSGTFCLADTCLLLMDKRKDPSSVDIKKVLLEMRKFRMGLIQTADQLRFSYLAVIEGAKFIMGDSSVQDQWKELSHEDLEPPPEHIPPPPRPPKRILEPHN
As to the method:
as §1, §2

Experiment [3] has as its target T3, RPTPα (Homo sapiens, UniProt P18433).
T3 construct: made in house; host or cells: Sf9 cells (baculovirus)
Particulars: 10 min, read-out: Phosphatase activity in percent of the value obtained in the absence of effectors. As to the method: as §1, §2

The target in experiment [4] is T4, TC.PTP (Homo sapiens, UniProt P17706).
T4 construct: made in house; host or cells: Sf9 cells (baculovirus)
T4 sequence (P17706 1-415): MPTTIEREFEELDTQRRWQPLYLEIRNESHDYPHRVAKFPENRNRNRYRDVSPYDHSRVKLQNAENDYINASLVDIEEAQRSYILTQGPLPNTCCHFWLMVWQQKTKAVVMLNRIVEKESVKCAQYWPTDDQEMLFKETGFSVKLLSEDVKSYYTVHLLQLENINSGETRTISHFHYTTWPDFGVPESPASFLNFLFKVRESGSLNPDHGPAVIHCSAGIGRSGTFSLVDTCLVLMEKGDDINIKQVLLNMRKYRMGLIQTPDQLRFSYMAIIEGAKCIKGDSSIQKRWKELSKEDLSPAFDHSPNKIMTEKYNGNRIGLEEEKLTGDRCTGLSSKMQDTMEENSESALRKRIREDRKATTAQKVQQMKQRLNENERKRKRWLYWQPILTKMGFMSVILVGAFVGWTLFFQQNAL
Particulars: 10 min, TC.PTP, read-out: Phosphatase activity in percent of the value obtained in the absence of effectors. As to the method:
as §1, §2

Experiment [5] deals with T5, TCΔC11.PTP (Homo sapiens, UniProt P17706).
T5 construct: both the wild type and truncated forms of the T-cell phosphatase; made in house; host or cells: Sf9 cells (baculovirus)
T5 sequence (P17706 1-317 limits assumed): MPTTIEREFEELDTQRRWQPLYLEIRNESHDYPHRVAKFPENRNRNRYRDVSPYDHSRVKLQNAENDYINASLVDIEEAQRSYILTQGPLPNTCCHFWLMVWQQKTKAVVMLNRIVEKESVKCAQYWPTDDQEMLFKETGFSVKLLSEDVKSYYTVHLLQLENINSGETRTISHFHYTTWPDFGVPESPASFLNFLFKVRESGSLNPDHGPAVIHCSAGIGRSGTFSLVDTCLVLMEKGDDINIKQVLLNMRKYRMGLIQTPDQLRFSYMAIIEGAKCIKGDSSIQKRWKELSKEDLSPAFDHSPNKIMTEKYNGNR
Particulars: 10 min, read-out: Phosphatase activity in percent of the value obtained in the absence of effectors. As for the experimental part: as §1, §2

T3 sequence (P18433 20-802): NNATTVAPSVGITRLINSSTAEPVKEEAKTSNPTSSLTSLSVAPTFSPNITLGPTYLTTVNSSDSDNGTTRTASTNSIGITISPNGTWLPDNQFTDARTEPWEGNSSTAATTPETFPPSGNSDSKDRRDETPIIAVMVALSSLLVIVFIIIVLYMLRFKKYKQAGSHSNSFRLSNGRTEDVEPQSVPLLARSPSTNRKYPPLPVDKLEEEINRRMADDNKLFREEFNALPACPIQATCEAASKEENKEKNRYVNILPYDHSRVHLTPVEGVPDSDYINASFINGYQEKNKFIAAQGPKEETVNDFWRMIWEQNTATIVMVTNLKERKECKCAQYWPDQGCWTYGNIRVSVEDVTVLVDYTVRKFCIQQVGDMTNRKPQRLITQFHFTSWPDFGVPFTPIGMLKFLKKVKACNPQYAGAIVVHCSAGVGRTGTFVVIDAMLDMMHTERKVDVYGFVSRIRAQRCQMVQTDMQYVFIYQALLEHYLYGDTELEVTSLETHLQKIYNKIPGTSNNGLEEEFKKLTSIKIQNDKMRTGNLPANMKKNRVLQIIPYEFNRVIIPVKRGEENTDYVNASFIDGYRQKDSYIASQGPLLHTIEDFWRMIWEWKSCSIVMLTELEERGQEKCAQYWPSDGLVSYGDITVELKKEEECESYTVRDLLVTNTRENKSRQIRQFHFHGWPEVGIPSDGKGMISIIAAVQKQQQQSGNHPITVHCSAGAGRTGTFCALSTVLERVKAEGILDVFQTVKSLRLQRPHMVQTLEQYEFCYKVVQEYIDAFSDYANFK

`NCCCCNCCCN` [spermidine]: the remaining activity at 100 µM stood at 103% in experiment [1] (effector 0.1 mM), 72% in experiment [3] (effector 0.1 mM), 92% in experiment [4] (effector 0.1 mM) and 67% in experiment [5] (effector 0.1 mM). For the same compound, the remaining activity at 2000 µM in experiment [1] (effector 2.0 mM) amounted to 92%; in experiment [3] (effector 2.0 mM), 60%; in experiment [4] (effector 2.0 mM) it was 88%; in experiment [5] (effector 2.0 mM), 65%. Also, the remaining activity at 5000 µM in experiment [1] (effector 5.0 mM) was 83%; in experiment [3] (effector 5.0 mM), 34%; in experiment [4] (effector 5.0 mM), 91%; in experiment [5] (effector 5.0 mM) it was 66%. For the same compound, the “Phosphatase activity in percent of the value obtained in the absence of effectors” value was 89% in experiment [2] (effector 0.1 mM), 94% in experiment [2] (effector 2.0 mM) and 92% in experiment [2] (effector 5.0 mM).
